Measured values reported in patent EP4818177A1, “TRICYCLIC DERIVATIVE INHIBITOR, AND PREPARATION METHOD AND USE THEREFOR” (Shanghai Hansoh Biomedical Co., Ltd., priority 2023, dated 2025).
pIC50: −log10 of the molar value.

Legend:
[1] = biological target: T1, PRMT5/MEP50-MTA protein complex (Homo sapiens, UniProt O14744); test: Thermal shift assay: change in melting temperature of the PRMT5/MEP50-MTA protein complex; assay type: binding; settings: compound 8 µM, PRMT5/MEP50 2 µM, MTA 2 µM; Tm minus DMSO vehicle control
T1 construct: purchased Viva Biotech
In short: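 Human PRMT5/MEP50 (2 µM) preincubated 30 min at room temperature in 50 mM HEPES, 10 mM DTT, 250 mM NaCl with 2 µM MTA and SYPRO Orange. Compound at 8 µM final, 10 min at room temperature, 2.5% DMSO vehicle control. Melt curve 25→95°C at 0.03°C/s gives Tm.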

[2] = test system: MTAP Knockout HCT116 cells; test: Cell proliferation inhibition (CellTiter-Glo), MTAP knockout cells; assay type: cell-based; settings: for Selectivity: HCT116 versus MTAP Knockout HCT116; for pIC50: 72-240 hours incubation, CellTiter-Glo
Excerpt: (§1) Test Example 2: Determination of the inhibitory effect of the compounds of the present invention on the proliferation activity of HCT116 and MTAP Knockout HCT116 cells.
(§2) 1. Experimental objective: to determine the inhibitory effect of the compound on the proliferation activity of HCT116 wild-type and HCT116 MTAP knockout cells. 2. Experimental instruments: Centrifuge (Eppendorf 5810R); microplate reader (BioTek Synergy H1 or PerkinElmer Envision); pipette (Eppendorf or Rainin). 3. Experimental reagents: HCT116 and MTAP Knockout HCT116 cells were purchased from Nanjing Cobioer; Cell Titer-Glo was purchased from Promega (Cat. No. G7573); McCoy' 5A was purchased from Gibco (Cat. No. 12330031); FBS was purchased from Gibco (Cat. No. 10091148); PBS was purchased from Gibco (Cat. No. 10010023); trypsin was purchased from Gibco (Cat. No. 25200056); cell culture plates were purchased from Corning (Cat. No. 3610). 4. Experimental methods: HCT116 and MTAP Knockout HCT116 cells were cultured in McCoy'5A medium containing 10% FBS until an appropriate cell density was reached. The cells were then collected and adjusted to a suitable concentration using complete medium. The cell suspension was seeded into a 96-well plate at 90 µL per well and allowed to adhere overnight in a 37°C, 5% CO2 incubator. Compound solutions of various concentrations were prepared using DMSO and culture medium, with a vehicle control set. The compound solutions were added to the 96-well plate at 10 µL per well, and the plate was incubated in a 37°C, 5% CO2 incubator for an additional 72-240 hours. After incubation, CellTiter-Glo solution was added, and the mixture was mixed uniformly by shaking, followed by incubation in the dark for 10 to 30 minutes. Luminescence was measured using a Synergy H1 or Envision microplate reader. 5. Experimental data processing method: The inhibition rate was calculated using the luminescence signal values, and the concentrations along with the inhibition rates were subjected to non-linear regression curve fitting using Graphpad Prism software to obtain the IC50 values.

HCT116 wild-type cells = test: Cell proliferation inhibition (CellTiter-Glo), wild-type cells; assay type: cell-based; settings: 72-240 hours incubation
Excerpt: as §1, §2

in vivo = settings: rat, po, 5 mg/kg
hERG potassium channel = biological target: T2, hERG potassium channel (Homo sapiens, UniProt Q12809); test: hERG potassium channel inhibitory activity assay (patch clamp, CHO-hERG cells); assay type: cell-based; settings: tail current, read-out: inhibitory activity (IC50) against the cardiac hERG potassium channel
T2 construct: host or cells: CHO cells stably expressing hERG (CHO-hERG)
Excerpt: Test Example 5: hERG potassium channel inhibitory activity assay
1. Study objective: to determine the inhibitory effect of the compound on the hERG potassium channel activity. 2. Experimental instruments and reagents: 2.1 Reagents
3. Experimental methods • 3.1 Cell culture: The CHO cells stably expressing the hERG potassium channel (CHO-hERG) used in the experiment were obtained from Sophion Bioscience (Ballerup, Denmark), and passaged and cryopreserved at WuXi AppTec Co., Ltd. in Shanghai. The CHO-hERG cells were cultured and passaged in Ham's F-12 medium containing 1 × GlutaMAX, 10% fetal bovine serum, 100 µg/mL G418 and 100 µg/mL hygromycin B at 37°C with 5% CO2. • 3.2 Preparation of intracellular and extracellular solutions: The extracellular solution was prepared once a month, and aliquoted and stored in 1 L storage bottles. The intracellular solution was prepared once every three months, and aliquoted and cryopreserved at -20°C. The intracellular solution was thawed in a 37°C water bath before the experiment and then placed in an ice bath for later use. • 3.3 Preparation of compounds: The compounds were dissolved in 100% DMSO (Sigma-Aldrich, D2650) to prepare 10 mM or 30 mM stock solutions. Before the experiment, the stock solutions of the test compounds were diluted with DMSO to prepare solutions 1000-fold or 333-fold higher than the desired test concentrations, and then further diluted 1000-fold or 333-fold with the extracellular solution to achieve the desired concentrations. • 3.4 Cell preparation: The CHO-hERG cells used in the experiment were cultured for at least two days. When the cell density reached more than 75%, the cells were digested with TrypLE, then resuspended in the extracellular solution, and centrifuged. The supernatant was discarded, and then the cells were further resuspended in 2 mL of extracellular solution for later use. 4. Experimental data processing: In data processing, the peak tail current was baseline-corrected when evaluating the hERG blocking effect. The effect of each compound at various concentrations was expressed as the inhibition rate of the tail current. IC50 values were obtained by fitting the data to the Hill equation: I/Icontrol = Bottom + (Top−Bottom)/(1+10^(∧)((LogIC50−X)*HillSlope)) [formula] • Top: maximum effect; Bottom: minimum effect; Hillslope: slope; X: concentration of the test compound. • IC50: half-maximal inhibitory concentration of the test compound on hERG. […] 5.

[3] = Pharmacokinetics in rats (plasma) after oral administration; settings: rat, 5 mg/kg
[4] = Homo sapiens, HCT-116, MTAP Knockout HCT116 cells
[5] = Homo sapiens, HCT-116, HCT116 wild-type cells

T2 sequence (Q12809 whole entry): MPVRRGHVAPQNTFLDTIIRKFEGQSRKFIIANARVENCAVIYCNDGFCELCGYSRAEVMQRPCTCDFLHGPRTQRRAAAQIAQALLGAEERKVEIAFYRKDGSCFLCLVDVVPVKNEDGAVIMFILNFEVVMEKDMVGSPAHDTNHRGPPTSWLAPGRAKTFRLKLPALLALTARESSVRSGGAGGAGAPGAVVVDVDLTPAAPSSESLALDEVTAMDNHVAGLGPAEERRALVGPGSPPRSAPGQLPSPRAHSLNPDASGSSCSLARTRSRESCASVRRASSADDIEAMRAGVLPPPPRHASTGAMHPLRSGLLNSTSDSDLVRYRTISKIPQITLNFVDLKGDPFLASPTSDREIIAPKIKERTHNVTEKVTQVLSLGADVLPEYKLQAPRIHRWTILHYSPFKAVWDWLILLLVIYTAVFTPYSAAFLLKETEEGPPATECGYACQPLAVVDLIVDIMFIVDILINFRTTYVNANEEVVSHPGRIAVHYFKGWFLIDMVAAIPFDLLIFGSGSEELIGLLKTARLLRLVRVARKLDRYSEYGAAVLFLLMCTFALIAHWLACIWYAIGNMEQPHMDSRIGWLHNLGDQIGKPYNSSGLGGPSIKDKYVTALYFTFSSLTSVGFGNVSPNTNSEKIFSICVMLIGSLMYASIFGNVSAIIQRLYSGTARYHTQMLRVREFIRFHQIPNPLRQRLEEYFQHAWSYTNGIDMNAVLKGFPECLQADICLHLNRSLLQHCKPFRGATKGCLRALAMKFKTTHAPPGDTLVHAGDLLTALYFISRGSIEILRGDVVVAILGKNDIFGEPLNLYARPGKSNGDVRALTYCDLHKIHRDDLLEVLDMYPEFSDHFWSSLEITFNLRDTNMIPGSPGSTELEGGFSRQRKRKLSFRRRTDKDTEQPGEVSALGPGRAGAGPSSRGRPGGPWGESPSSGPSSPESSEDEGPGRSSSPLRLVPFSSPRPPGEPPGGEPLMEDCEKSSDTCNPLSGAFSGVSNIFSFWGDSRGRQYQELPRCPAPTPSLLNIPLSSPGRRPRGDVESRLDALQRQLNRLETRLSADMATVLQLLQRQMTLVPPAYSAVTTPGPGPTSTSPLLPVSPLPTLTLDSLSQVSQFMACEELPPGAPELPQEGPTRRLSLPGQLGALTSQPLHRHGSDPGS
T1 sequence (O14744 whole entry): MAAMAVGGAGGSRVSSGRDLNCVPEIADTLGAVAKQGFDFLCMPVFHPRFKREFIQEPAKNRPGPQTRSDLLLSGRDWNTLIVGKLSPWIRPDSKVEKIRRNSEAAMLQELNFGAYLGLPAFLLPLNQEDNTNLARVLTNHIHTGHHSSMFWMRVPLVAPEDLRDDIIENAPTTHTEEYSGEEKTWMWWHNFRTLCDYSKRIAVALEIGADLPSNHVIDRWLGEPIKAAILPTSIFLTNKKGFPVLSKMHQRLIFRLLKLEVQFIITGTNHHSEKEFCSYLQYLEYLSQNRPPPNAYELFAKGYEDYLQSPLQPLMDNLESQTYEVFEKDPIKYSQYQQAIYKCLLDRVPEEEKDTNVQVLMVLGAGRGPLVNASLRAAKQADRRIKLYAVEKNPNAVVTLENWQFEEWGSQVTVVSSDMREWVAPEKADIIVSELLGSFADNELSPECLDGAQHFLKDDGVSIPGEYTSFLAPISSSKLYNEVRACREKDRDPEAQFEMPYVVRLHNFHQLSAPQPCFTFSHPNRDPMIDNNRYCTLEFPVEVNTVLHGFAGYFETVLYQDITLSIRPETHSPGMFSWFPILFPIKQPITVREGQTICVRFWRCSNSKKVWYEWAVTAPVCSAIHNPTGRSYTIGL
T1 sequence (Q9BQA1 whole entry partner): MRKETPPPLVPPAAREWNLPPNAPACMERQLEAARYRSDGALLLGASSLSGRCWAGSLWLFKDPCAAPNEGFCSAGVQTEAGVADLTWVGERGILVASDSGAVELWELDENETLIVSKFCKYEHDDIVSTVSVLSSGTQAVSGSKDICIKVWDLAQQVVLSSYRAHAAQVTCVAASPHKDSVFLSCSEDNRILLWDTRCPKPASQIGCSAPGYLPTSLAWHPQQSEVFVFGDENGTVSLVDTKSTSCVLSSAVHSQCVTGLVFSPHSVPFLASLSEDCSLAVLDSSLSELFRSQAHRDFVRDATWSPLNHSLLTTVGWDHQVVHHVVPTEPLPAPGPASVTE

## CNN(C(=O)c1cc2c3c(c(N)nc2cn1)COC3)C1COc2cc(S(F)(F)(F)(F)F)ccc21 (single isomer, unassigned) [Example 372-P1]
[1]
  ΔTm at 8 µM: 11.6 °C
[2]
  Selectivity: 69
[2]; [4]
  pIC50: 7.92
HCT116 wild-type cells; [5]
  pIC50: 6.09
In vivo
  AUC(0-inf): 2570 ng·h/mL
  Cmax: 378 ng/mL
  MRT inf: 4.8 h
  Tmax: 2.7 h
  half-life: 2.7 h

## [2H]C([2H])([2H])NN(C(=O)c1cc2c(cn1)nc(N)c1cnn(C)c12)C1COCc2c1ccn1c(C(F)(F)F)cnc21 (single isomer, unassigned) [Example 391-P1]
[1]
  ΔTm (°C): 13.02 °C
[2]
  Selectivity: 14
[2]; MTAP Knockout HCT116 cells
  pIC50: 8.06
HCT116 wild-type cells; HCT116 wild-type cells
  pIC50: 6.92
hERG potassium channel
  pIC50: < 4.52

## Cc1cc2nc(N)c3cncn3c2cc1C(=O)N(C1COCc2nc(C(F)(F)F)ccc21)N(C)C (centres unmarked) [Example 276, 4-Amino-N',N',7-trimethyl-N-(2-(trifluoromethyl)-5,8-dihydro-6H-pyrano[3,4-b]pyridin-5-yl)imidazo[1,5-a]quinoxaline-8-carbohydrazide]
[1]
  ΔTm at 8 µM: 10.4 °C
hERG potassium channel
  pIC50: < 4.52

## CNN(C(=O)c1cc2c3c(c(N)nc2cn1)COC3)[C@@H]1COCc2nc(C(F)(F)F)ccc21 [Example 286-P1, (S)-4-amino-N'-methyl-N-(2-trifluoromethyl-5,8-dihydro-6H-pyrano[3,4-b]pyridin-5-yl)-1,3-dihydrofuro[3,4-c][1,7]naphthyridine-8-carbohydrazide]
[1]
  ΔTm at 8 µM: 11.1 °C
[2]
  Selectivity: 118
[2]; [4]
  pIC50: 7.64
HCT116 wild-type cells; [5]
  pIC50: 5.57
hERG potassium channel
  pIC50: < 4.52
[3]; male, SD
  AUC(0-inf): 1280 ng·h/mL
  Cmax: 480 ng/mL
  MRT inf: 2.5 h
  Tmax: 0.5 h
  half-life: 2.1 h

## [2H]C([2H])([2H])NN(C(=O)c1cc2c3c(c(N)nc2cn1)COC3)C1COCc2nc(C(F)(F)F)ccc21 (centres unmarked) [Example 321]
[1]
  ΔTm at 8 µM: 10.9 °C
hERG potassium channel
  pIC50: < 4.52

## [2H]C([2H])([2H])NN(C(=O)c1cc2c3c(c(N)nc2cn1)[C@@H](C)OC3)[C@@H]1COCc2c1ccn1c(C(F)(F)F)cnc21 [Example 362-P1]
[1]
  ΔTm at 8 µM: 12 °C
[2]
  Selectivity: 68
[2]; [4]
  pIC50: 8.17
HCT116 wild-type cells; [5]
  pIC50: 6.35
hERG potassium channel
  pIC50: < 4.52
[3]
  AUC(0-inf): 8180 ng·h/mL
  Cmax: 2750 ng/mL
  MRT inf: 2.8 h
  Tmax: 0.7 h
  half-life: 2.7 h

## [2H]C([2H])([2H])NN(C(=O)c1cc2c3c(c(N)nc2cn1)COC3)C1COCc2c1ccn1c(C(F)(F)F)cnc21 (centres unmarked) [Example 371, 4-Amino-N'-(methyl-d3)-N-(3-(trifluoromethyl)-7,10-dihydro-8H-imidazo[1,2-a]pyrano[3,4-c]pyridin-7-yl)-1,3-dihydrofuro[3,4-c][1,7]naphthyridine-8-carbohydrazide]
[1]
  ΔTm at 8 µM: 10.6 °C
hERG potassium channel
  pIC50: < 4.52
[3]; male, SD
  AUC(0-inf): 3730 ng·h/mL
  Cmax: 1050 ng/mL
  MRT inf: 4.4 h
  Tmax: 0.5 h
  half-life: 4.4 h

## CNN(C(=O)c1cc2c3c(c(N)nc2cn1)COC3)[C@@H]1COCc2nc(S(F)(F)(F)(F)F)ccc21 [Example 374, 4-Amino-N'-methyl-N-(2-pentafluorosulphanyl-5,8-dihydro-6H-pyrano[3,4-b]pyridin-5-yl)-1,3-dihydrofuran[3,4-c][1,7]naphthyridine-8-hydrazide]
[1]
  ΔTm at 8 µM: 12.3 °C
[2]
  Selectivity: 23
[2]; [4]
  pIC50: 7.89
HCT116 wild-type cells; [5]
  pIC50: 6.52
hERG potassium channel
  pIC50: < 4.52
[3]
  AUC(0-inf): 1180 ng·h/mL
  Cmax: 652 ng/mL
  MRT inf: 1.9 h
  Tmax: 0.5 h
  half-life: 1.9 h

## [2H]C([2H])([2H])NN(C(=O)c1cc2c(cn1)nc(N)c1cnn(C)c12)C1COCc2c1ccn1c(C(F)(F)F)cnc21 (centres unmarked) [Example 391, 4-Amino-1-methyl-N'-(methyl-d3)-N-(3-trifluoromethyl-7,10-dihydro-8H-imidazo[1,2-a]pyrano[3,4-c]pyridin-7-yl)-1H-pyrazolo[4,3-c][1,7]naphthyridine-8-carbohydrazide]
[1]
  ΔTm at 8 µM: 12.7 °C
[2]
  Selectivity: 28
[2]; [4]
  pIC50: 7.89
HCT116 wild-type cells; HCT116 wild-type cells
  pIC50: 6.45
hERG potassium channel
  pIC50: < 4.52
[3]; male, SD
  AUC(0-inf): 11900 ng·h/mL
  Cmax: 1690 ng/mL
  MRT inf: 5.8 h
  Tmax: 1.5 h
  half-life: 4.4 h
